Key:
Type in all cases: functional
IMR-32 = test: Growth inhibition of human IMR32 cells at 10 uM after 48 hrs by SRB assay; details: IMR-32, 48 h, read-out: GI
HEp-2 = test: Growth inhibition of human Hep2 cells at 10 uM after 48 hrs by SRB assay; details: HEp-2, 48 h, read-out: GI
Rattus norvegicus = test: Antiinflammatory activity in albino Charles-Foster rat assessed as inhibition of carrageenan-induced paw oedema at 50 mg/kg, po administered 30 mins before carrageenan challenge […] after 1-3 hrs relative to control; set-up: scale not given: the % may be the effect or the level left
COLO 205 = test: Growth inhibition of human COLO205 cells at 10 uM after 48 hrs by SRB assay; details: COLO 205, 48 h, read-out: GI
HCT-15 = test: Growth inhibition of human HCT15 cells at 10 uM after 48 hrs by SRB assay; details: HCT-15, 48 h, read-out: GI
MCF7 = test: Growth inhibition of human MCF7 cells at 10 uM after 48 hrs by SRB assay; details: MCF7, 48 h, read-out: GI
[1] = Growth inhibition of human 502713 cells at 10 uM after 48 hrs by SRB assay; details: Homo sapiens, 502713, 48 h; read-out: GI
A549 = test: Growth inhibition of human A549 cells at 10 uM after 48 hrs by SRB assay; details: A549, 48 h, read-out: GI
DU-145 = test: Growth inhibition of human DU145 cells at 10 uM after 48 hrs by SRB assay; details: DU-145, 48 h, read-out: GI
PC-3 = test: Growth inhibition of human PC3 cells at 10 uM after 48 hrs by SRB assay; details: PC-3, 48 h, read-out: GI
OVCAR-5 = test: Growth inhibition of human OVCAR5 cells at 10 uM after 48 hrs by SRB assay; details: OVCAR-5, 48 h, read-out: GI

## COc1ccc2nc3ccccc3c(NCCc3cccs3)c2c1
IMR-32
  inhibition of growth at 10 µM: 89%
HEp-2
  inhibition of growth at 10 µM: 52%
Rattus norvegicus
  Activity: 41.17%
COLO 205
  inhibition of growth at 10 µM: 69%
HCT-15
  inhibition of growth at 10 µM: 78%
MCF7
  inhibition of growth at 10 µM: 44%
[1]
  inhibition of growth at 10 µM: 67%
A549
  inhibition of growth at 10 µM: 20%

## Cc1cccc2c(NC(=S)NCc3ccco3)c3ccccc3nc12
IMR-32
  inhibition of growth at 10 µM: 5%
HEp-2
  inhibition of growth at 10 µM: 61%
Rattus norvegicus
  Activity: 32.33%
COLO 205
  inhibition of growth at 10 µM: 88%
MCF7
  inhibition of growth at 10 µM: 94%
[1]
  inhibition of growth at 10 µM: 95%
A549
  inhibition of growth at 10 µM: 46%

## Cc1cccc2c(NC(=S)NCCc3cccs3)c3ccccc3nc12
IMR-32
  inhibition of growth at 10 µM: 42%
HEp-2
  inhibition of growth at 10 µM: 67%
Rattus norvegicus
  Activity: 30.7%
COLO 205
  inhibition of growth at 10 µM: 19%
MCF7
  inhibition of growth at 10 µM: 92%
[1]
  inhibition of growth at 10 µM: 71%
A549
  inhibition of growth at 10 µM: 53%

## COc1ccc2nc3ccccc3c(NCCc3c[nH]c4ccccc34)c2c1
DU-145
  inhibition of growth at 10 µM: 25%
PC-3
  inhibition of growth at 10 µM: 51%
HEp-2
  inhibition of growth at 10 µM: 9%
Rattus norvegicus
  Activity: 31.33%
COLO 205
  inhibition of growth at 10 µM: 0%
OVCAR-5
  inhibition of growth at 10 µM: 23%
MCF7
  inhibition of growth at 10 µM: 42%

## COc1ccc2nc3ccccc3c(NC(=S)NCCc3cccs3)c2c1
IMR-32
  inhibition of growth at 10 µM: 74%
HEp-2
  inhibition of growth at 10 µM: 28%
Rattus norvegicus
  Activity: 34.08%
COLO 205
  inhibition of growth at 10 µM: 35%
HCT-15
  inhibition of growth at 10 µM: 45%
MCF7
  inhibition of growth at 10 µM: 34%
[1]
  inhibition of growth at 10 µM: 46%
A549
  inhibition of growth at 10 µM: 42%

## Cc1cccc2c(NCc3ccco3)c3ccccc3nc12
IMR-32
  inhibition of growth at 10 µM: 86%
HEp-2
  inhibition of growth at 10 µM: 51%
Rattus norvegicus
  Activity: 0%
COLO 205
  inhibition of growth at 10 µM: 72%
HCT-15
  inhibition of growth at 10 µM: 74%
MCF7
  inhibition of growth at 10 µM: 58%
[1]
  inhibition of growth at 10 µM: 52%
A549
  inhibition of growth at 10 µM: 52%

## COc1ccc2nc3ccccc3c(NC(=S)NCc3ccco3)c2c1
IMR-32
  inhibition of growth at 10 µM: 71%
HEp-2
  inhibition of growth at 10 µM: 26%
Rattus norvegicus
  Activity: 30.98%
COLO 205
  inhibition of growth at 10 µM: 23%
HCT-15
  inhibition of growth at 10 µM: 61%
MCF7
  inhibition of growth at 10 µM: 35%
[1]
  inhibition of growth at 10 µM: 45%
A549
  inhibition of growth at 10 µM: 37%

## COc1cccc2c(NCc3ccco3)c3ccccc3nc12
IMR-32
  inhibition of growth at 10 µM: 98%
HEp-2
  inhibition of growth at 10 µM: 54%
Rattus norvegicus
  Activity: 38.37%
COLO 205
  inhibition of growth at 10 µM: 83%
HCT-15
  inhibition of growth at 10 µM: 71%
MCF7
  inhibition of growth at 10 µM: 50%
[1]
  inhibition of growth at 10 µM: 62%
A549
  inhibition of growth at 10 µM: 36%

## COc1cccc2c(NCCc3c[nH]c4ccccc34)c3ccccc3nc12
IMR-32
  inhibition of growth at 10 µM: 99%
HEp-2
  inhibition of growth at 10 µM: 75%
Rattus norvegicus
  Activity: 39.69%
COLO 205
  inhibition of growth at 10 µM: 84%
HCT-15
  inhibition of growth at 10 µM: 91%
MCF7
  inhibition of growth at 10 µM: 78%
[1]
  inhibition of growth at 10 µM: 63%
A549
  inhibition of growth at 10 µM: 49%

## Cc1cccc2c(NCCc3c[nH]c4ccccc34)c3ccccc3nc12
DU-145
  inhibition of growth at 10 µM: 42%
PC-3
  inhibition of growth at 10 µM: 53%
HEp-2
  inhibition of growth at 10 µM: 23%
Rattus norvegicus
  Activity: 31.03%
COLO 205
  inhibition of growth at 10 µM: 69%
OVCAR-5
  inhibition of growth at 10 µM: 51%
MCF7
  inhibition of growth at 10 µM: 53%

## Cc1cccc2c(NC(=S)NCCc3c[nH]c4ccccc34)c3ccccc3nc12
IMR-32
  inhibition of growth at 10 µM: 67%
HEp-2
  inhibition of growth at 10 µM: 96%
Rattus norvegicus
  Activity: 35.77%
COLO 205
  inhibition of growth at 10 µM: 98%
MCF7
  inhibition of growth at 10 µM: 95%
[1]
  inhibition of growth at 10 µM: 90%
A549
  inhibition of growth at 10 µM: 84%

## COc1cccc2c(NCCc3cccs3)c3ccccc3nc12
IMR-32
  inhibition of growth at 10 µM: 78%
HEp-2
  inhibition of growth at 10 µM: 62%
Rattus norvegicus
  Activity: 26.05%
COLO 205
  inhibition of growth at 10 µM: 24%
HCT-15
  inhibition of growth at 10 µM: 73%
MCF7
  inhibition of growth at 10 µM: 37%
[1]
  inhibition of growth at 10 µM: 67%
A549
  inhibition of growth at 10 µM: 61%

— ChEMBL document CHEMBL1154710, “Synthesis, anti-inflammatory and anticancer activity evaluation of some novel acridine derivatives” (2010)
